Source: ChEMBL document CHEMBL1201862, “PubChem BioAssay data set” (2004)
Calls of active or inactive are those of the source. Rule as the data show it: actives have a measured IC50 and inactives only a lower limit.

Molecular target: Envelope glycoprotein gp160 (Human immunodeficiency virus 1, UniProt Q6QLK5)
Experiment: inhibitors of HIV fusion peptide binding, primary screen, biochemical, uHTS, fluorescence dequenching (AID 1986)

Envelope glycoprotein gp160, sequence (Q6QLK5 whole entry, the tested form may be a part): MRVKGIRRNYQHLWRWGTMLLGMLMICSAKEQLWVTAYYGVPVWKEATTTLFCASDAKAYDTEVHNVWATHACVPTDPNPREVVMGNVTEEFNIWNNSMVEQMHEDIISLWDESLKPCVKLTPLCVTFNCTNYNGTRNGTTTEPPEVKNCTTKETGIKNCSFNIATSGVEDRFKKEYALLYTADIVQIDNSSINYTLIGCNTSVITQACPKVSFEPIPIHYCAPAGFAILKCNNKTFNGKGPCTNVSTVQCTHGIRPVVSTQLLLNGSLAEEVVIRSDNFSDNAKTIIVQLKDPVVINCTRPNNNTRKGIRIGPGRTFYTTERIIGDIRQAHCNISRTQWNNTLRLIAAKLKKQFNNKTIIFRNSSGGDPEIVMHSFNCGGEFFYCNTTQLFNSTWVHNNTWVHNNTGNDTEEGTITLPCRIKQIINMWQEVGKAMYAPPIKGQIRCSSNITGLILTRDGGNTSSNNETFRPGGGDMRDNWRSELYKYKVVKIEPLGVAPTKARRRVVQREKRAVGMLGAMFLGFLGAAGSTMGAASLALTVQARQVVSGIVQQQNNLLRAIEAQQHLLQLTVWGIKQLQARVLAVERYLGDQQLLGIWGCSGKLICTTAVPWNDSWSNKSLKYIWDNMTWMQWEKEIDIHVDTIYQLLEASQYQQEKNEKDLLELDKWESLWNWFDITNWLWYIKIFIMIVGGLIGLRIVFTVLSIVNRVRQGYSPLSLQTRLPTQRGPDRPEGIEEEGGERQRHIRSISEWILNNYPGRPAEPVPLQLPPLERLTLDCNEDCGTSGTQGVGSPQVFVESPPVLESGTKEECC

Row | Structure (SMILES) | IC50
1 | COc1ccccc1NS(=O)(=O)c1cccc(N2C(=O)/C(=C\Nc3ccccc3C(=O)O)c3ccccc3C2=O)c1 | 13.1 µM (active)
2 | COc1cc(/C=C2\C(=N)N3N=C(S(C)(=O)=O)SC3=NC2=O)ccc1OCCOc1ccccc1C | 13.7 µM (active)
3 | CSc1nnc(-c2ccccc2/N=C/c2c(C)nn(-c3ccc4ccccc4c3)c2O)c(O)n1 | 25.8 µM (active)
